Data on 34 compounds can be found in patent publication US20160251341A1, “SUBSTITUTED TRIAZOLE COMPOUNDS AS SERINE PROTEASE INHIBITORS” (Verseon Corporation, priority 2015, published 2016).

SMILES strings stand for the structures. Counter-ions that a name gives are not always drawn. Where only a bound is given, the exact number is not on record here.

The target of the assay is T1, Human thrombin (Homo sapiens, UniProt P00734).
T1 construct: purchased Haematologic Technologies Inc
The assay is described as follows: Thrombin protease inhibition assay (chromogenic substrate S-2238). In kind it is biochemical. The note with it: 3 nM human thrombin, 125 μM S-2238, 10 min pre-incubation, RT. How it is done:
The thrombin activity reported herein (e.g., Table A) was obtained as follows. Human thrombin was obtained from Haematologic Technologies Inc. The chromogenic substrate S-2238 was obtained from DiaPharma. Thrombin was assayed in buffer containing 0.05 M Tris (pH 7.4), 0.015 M NaCl and 0.01% PEG-8000. The final concentration of enzyme used was 3 nM thrombin. The final concentration of substrate used was 125 μM S-2238 for thrombin. All assays were performed in 96-well microtiter plates at room temperature (RT). The enzyme and inhibitor were pre-incubated for 10 minutes then substrate was added and read at 405 nm in a SpectraMax Plus Spectrophotometer (Molecular Devices). Inhibitor IC50 values were determined by adding test compound as ten point, three-fold serial dilutions in buffer solution, as known in the art. The plate was read at 10 minutes after substrate addition. The IC50 was calculated by plotting the percent (%) inhibition against compound concentration and fitting the data to a constrained four parameter sigmoidal curve, as known in the art.
As to `O=C(c1ccccc1)n1nc(C2CCNCC2)nc1NCc1ccc(Cl)s1` [Entry 15, 1-benzoyl-N-[(5-chlorothiophen-2-yl)methyl]-3-(piperidin-4-yl)-1H-1,2,4-triazol-5-amine hydrochloride], the IC50 was not above 100 nM.

`COc1ccccc1C(=O)n1nc(C2=C(O)CCCC2)nc1NCc1ccccc1` [Entry 16, 2-[5-(benzylamino)-1-(2-methoxybenzoyl)-1H-1,2,4-triazol-3-yl]cyclohex-1-en-1-ol]: the IC50 is not below 100000 nM.

The compound `OC1=C(c2n[nH]c(NCc3ccccc3)n2)CCCC1` [Entry 17, 2-[5-(benzylamino)-1H-1,2,4-triazol-3-yl]cyclohex-1-en-1-ol] returned an IC50 not below 100000 nM.

`COC1CCCCC1c1n[nH]c(N)n1` (stereo not shown) [Entry 18, 3-(2-methoxycyclohexyl)-1H-1,2,4-triazol-5-amine]: the IC50 is not below 100000 nM.

`COc1ccccc1C(=O)n1nc(C2CN(S(=O)(=O)N(C)C)C2)nc1NCc1ccc(Cl)s1` [Entry 19, 3-(5-[(5-chlorothiophen-2-yl)methyl]amino-1-(2-methoxybenzoyl)-1H-1,2,4-triazol-3-yl)-N,N-dimethylazetidine-1-sulfonamide] showed an IC50 not above 100 nM.

Compound `O=C(c1ccccc1)n1nc(C2CNC2)nc1NCc1ccc(Cl)s1` [Entry 20, 3-(azetidin-3-yl)-1-benzoyl-N-[(5-chlorothiophen-2-yl)methyl]-1H-1,2,4-triazol-5-amine] came in with an IC50 not below 100000 nM.

As to `O=C(c1cccc2c1OCCO2)n1nc(C2CNC2)nc1NCc1ccc(Cl)s1` [Entry 21, 3-(azetidin-3-yl)-N-[(5-chlorothiophen-2-yl)methyl]-1-(2,3-dihydro-1,4-benzodioxine-5-carbonyl)-1H-1,2,4-triazol-5-amine; trifluoroacetic acid], the IC50 was not above 100 nM.

Compound `O=C(C1CCCCC1)n1nc(C2CNC2)nc1NCc1ccc(Cl)s1` [Entry 22, 3-(azetidin-3-yl)-N-[(5-chlorothiophen-2-yl)methyl]-1-cyclohexanecarbonyl-1H-1,2,4-triazol-5-amine; trifluoroacetic acid] registered an IC50 of 100 to 1000 nM.

`O=C(C1CCCC1)n1nc(C2CNC2)nc1NCc1ccc(Cl)s1` [Entry 23, 3-(azetidin-3-yl)-N-[(5-chlorothiophen-2-yl)methyl]-1-cyclopentanecarbonyl-1H-1,2,4-triazol-5-amine]: the IC50 was not below 100000 nM.

As for `Nc1nc(C2CCOCC2)n[nH]1` [Entry 24, 3-(oxan-4-yl)-1H-1,2,4-triazol-5-amine], the IC50 was not below 100000 nM.

`Nc1nc(C2CCCO2)n[nH]1` (stereo not shown) [Entry 25, 3-(oxolan-2-yl)-1H-1,2,4-triazol-5-amine] came in with an IC50 not below 100000 nM.

On to `Nc1nc(C2CCOC2)n[nH]1` (stereo not shown) [Entry 26, 3-(oxolan-3-yl)-1H-1,2,4-triazol-5-amine], for which the IC50 is not below 100000 nM.

With `COc1ccccc1C(=O)n1nc(C2CN(S(=O)(=O)c3ccccc3)C2)nc1NCc1ccc(Cl)s1` [Entry 27, 3-[1-(benzenesulfonyl)azetidin-3-yl]-N-[(5-chlorothiophen-2-yl)methyl]-1-(2-methoxybenzoyl)-1H-1,2,4-triazol-5-amine], the IC50 was not above 100 nM.

The compound `COc1ccccc1C(=O)n1nc(C2CCN(S(=O)(=O)c3ccccc3)CC2)nc1NCc1ccc(Cl)s1` [Entry 28, 3-[1-(benzenesulfonyl)piperidin-4-yl]-N-[(5-chlorothiophen-2-yl)methyl]-1-(2-methoxybenzoyl)-1H-1,2,4-triazol-5-amine] came in with an IC50 not above 100 nM.

For the compound `Nc1nc(C2=C(OCc3ccc(Cl)s3)CCCC2)n[nH]1` [Entry 29, 3-2-[(5-chlorothiophen-2-yl)methoxy]cyclohex-1-en-1-yl-1H-1,2,4-triazol-5-amine], the IC50 is not below 100000 nM.

On to `COc1ccccc1C(=O)n1nc(C2CCN(C(=O)N(C)C)CC2)nc1NCc1ccc(Cl)s1` [Entry 30, 4-(5-[(5-chlorothiophen-2-yl)methyl]amino-1-(2-methoxybenzoyl)-1H-1,2,4-triazol-3-yl)-N,N-dimethylpiperidine-1-carboxamide], for which the IC50 was not above 100 nM.

With `COc1ccccc1C(=O)n1nc(C2CCN(C(N)=O)CC2)nc1NCc1ccc(Cl)s1` [Entry 31, 4-(5-[(5-chlorothiophen-2-yl)methyl]amino-1-(2-methoxybenzoyl)-1H-1,2,4-triazol-3-yl)piperidine-1-carboxamide], the IC50 was not above 100 nM.

The compound `O=C(c1cccc2c1OCCO2)n1nc(C2CCOCC2)nc1NCc1ccc(Cl)s1` [Entry 32, N-[(5-chlorothiophen-2-yl)methyl]-1-(2,3-dihydro-1,4-benzodioxine-5-carbonyl)-3-(oxan-4-yl)-1H-1,2,4-triazol-5-amine] displayed an IC50 not above 100 nM.

On to `O=C(c1cccc2c1OCCO2)n1nc(C2CCCO2)nc1NCc1ccc(Cl)s1` (stereo not shown) [Entry 33, N-[(5-chlorothiophen-2-yl)methyl]-1-(2,3-dihydro-1,4-benzodioxine-5-carbonyl)-3-(oxolan-2-yl)-1H-1,2,4-triazol-5-amine], for which the IC50 is not above 100 nM.

The compound `O=C(c1cccc2c1OCCO2)n1nc(C2CCOC2)nc1NCc1ccc(Cl)s1` (stereo not shown) [Entry 34, N-[(5-chlorothiophen-2-yl)methyl]-1-(2,3-dihydro-1,4-benzodioxine-5-carbonyl)-3-(oxolan-3-yl)-1H-1,2,4-triazol-5-amine] yielded an IC50 not above 100 nM.

`O=C(c1cccc2c1OCCO2)n1nc(C2CCNCC2)nc1NCc1ccc(Cl)s1` [Entry 35, N-[(5-chlorothiophen-2-yl)methyl]-1-(2,3-dihydro-1,4-benzodioxine-5-carbonyl)-3-(piperidin-4-yl)-1H-1,2,4-triazol-5-amine hydrochloride] displayed an IC50 not above 100 nM.

In turn, `COc1ccc(C(=O)n2nc(C3CCOCC3)nc2NCc2ccc(Cl)s2)c(OC)c1` [Entry 36, N-[(5-chlorothiophen-2-yl)methyl]-1-(2,4-dimethoxybenzoyl)-3-(oxan-4-yl)-1H-1,2,4-triazol-5-amine] registered an IC50 not above 100 nM.

`COc1ccc(C(=O)n2nc(C3CCCO3)nc2NCc2ccc(Cl)s2)c(OC)c1` (stereo not shown) [Entry 37, N-[(5-chlorothiophen-2-yl)methyl]-1-(2,4-dimethoxybenzoyl)-3-(oxolan-2-yl)-1H-1,2,4-triazol-5-amine] showed an IC50 not above 100 nM.

Consider `COc1ccc(C(=O)n2nc(C3CCOC3)nc2NCc2ccc(Cl)s2)c(OC)c1` (stereo not shown) [Entry 38, N-[(5-chlorothiophen-2-yl)methyl]-1-(2,4-dimethoxybenzoyl)-3-(oxolan-3-yl)-1H-1,2,4-triazol-5-amine], for which the IC50 was not above 100 nM.

`COc1ccccc1C(=O)n1nc(C2CCCCC2OC)nc1NCc1ccc(Cl)s1` (stereo not shown) [Entry 39, N-[(5-chlorothiophen-2-yl)methyl]-1-(2-methoxybenzoyl)-3-(2-methoxycyclohexyl)-1H-1,2,4-triazol-5-amine] had an IC50 not above 100 nM.

With `COc1ccccc1C(=O)n1nc(C2CCOCC2)nc1NCc1ccc(Cl)s1` [Entry 40, N-[(5-chlorothiophen-2-yl)methyl]-1-(2-methoxybenzoyl)-3-(oxan-4-yl)-1H-1,2,4-triazol-5-amine], the IC50 is not above 100 nM.

Compound `COc1ccccc1C(=O)n1nc(C2CCCO2)nc1NCc1ccc(Cl)s1` (stereo not shown) [Entry 41, N-[(5-chlorothiophen-2-yl)methyl]-1-(2-methoxybenzoyl)-3-(oxolan-2-yl)-1H-1,2,4-triazol-5-amine] displayed an IC50 not above 100 nM.

Turning to `COc1ccccc1C(=O)n1nc(C2CCOC2)nc1NCc1ccc(Cl)s1` (stereo not shown) [Entry 42, N-[(5-chlorothiophen-2-yl)methyl]-1-(2-methoxybenzoyl)-3-(oxolan-3-yl)-1H-1,2,4-triazol-5-amine], the IC50 was not above 100 nM.

Turning to `COc1ccccc1C(=O)n1nc(C2CCNCC2)nc1NCc1ccc(Cl)s1` [Entry 43, N-[(5-chlorothiophen-2-yl)methyl]-1-(2-methoxybenzoyl)-3-(piperidin-4-yl)-1H-1,2,4-triazol-5-amine], the half-maximal inhibitory concentration (IC50) was not above 100 nM.

Consider `COc1ccccc1C(=O)n1nc(C2CCN(C(=O)N3CCCCC3)CC2)nc1NCc1ccc(Cl)s1` [Entry 44, N-[(5-chlorothiophen-2-yl)methyl]-1-(2-methoxybenzoyl)-3-[1-(piperidine-1-carbonyl)piperidin-4-yl]-1H-1,2,4-triazol-5-amine], for which the IC50 was not above 100 nM.

`COc1ccccc1C(=O)n1nc(C2CN(S(=O)(=O)N3CCCCC3)C2)nc1NCc1ccc(Cl)s1` [Entry 45, N-[(5-chlorothiophen-2-yl)methyl]-1-(2-methoxybenzoyl)-3-[1-(piperidine-1-sulfonyl)azetidin-3-yl]-1H-1,2,4-triazol-5-amine] displayed an IC50 not above 100 nM.

`COc1ccccc1C(=O)n1nc(C2CN(S(=O)(=O)C(C)C)C2)nc1NCc1ccc(Cl)s1` [Entry 46, N-[(5-chlorothiophen-2-yl)methyl]-1-(2-methoxybenzoyl)-3-[1-(propane-2-sulfonyl)azetidin-3-yl]-1H-1,2,4-triazol-5-amine] registered an IC50 not above 100 nM.

`COc1ccccc1C(=O)n1nc(C2CCN(S(=O)(=O)C(C)C)CC2)nc1NCc1ccc(Cl)s1` [Entry 47, N-[(5-chlorothiophen-2-yl)methyl]-1-(2-methoxybenzoyl)-3-[1-(propane-2-sulfonyl)piperidin-4-yl]-1H-1,2,4-triazol-5-amine] displayed an IC50 not above 100 nM.

On to `COc1ccccc1C(=O)n1nc(C2CCN(C(=O)N3CCCC3)CC2)nc1NCc1ccc(Cl)s1` [Entry 48, N-[(5-chlorothiophen-2-yl)methyl]-1-(2-methoxybenzoyl)-3-[1-(pyrrolidine-1-carbonyl)piperidin-4-yl]-1H-1,2,4-triazol-5-amine], for which the IC50 was not above 100 nM.

Broadly, the IC50 is the concentration at which inhibition is half-maximal.
